Source: PubChem BioAssay AID651732 (NMMLSC, 2012)
The source made the active and inactive calls.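 Rule for the calls: active = cytotoxic compounds whose viability ratio versus DMSO control falls below 0.85 at 10 µM; inactive = the rest.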

Test system: U937 viability, trypan blue exclusion, 24 h
Test: viability loss in U937 leukemia cells – cell-based, trypan blue exclusion, cytotoxicity control for Cdc42 probe extension project, late-stage follow-up (AID 651732)
Conditions: at 30 µM (top of the series)

COc1ccc(C2CC(c3ccccc3)=NN2c2ccc(S(N)(=O)=O)cc2)cc1 (stereo unspecified)
viability ratio to DMSO: 0.19 (inactive)
